Paper PMC7400437, “Synthesis and Evaluation of the Antibacterial Activities of 13-Substituted Berberine Derivatives” (Antibiotics, 2020)

Key:
S. enterica = experiment: MIC, antimicrobial activity assay; type: cell-based, Salmonella enterica (CIP 80.39); conditions: Salmonella enterica; Table 4, Gram-negative
[1] = test system: S.aureus (Methicillin-resistant); experiment: MIC, antimicrobial activity assay; type: cell-based; conditions: Staphylococcus aureus, read-out: MIC S.aureus (Methicillin-resistant)
K. pneumonia = experiment: MIC, antimicrobial activity assay; type: cell-based, Klebsiella pneumoniae (DSMZ 26371); conditions: Klebsiella pneumoniae; Table 4, Gram-negative
[2] = test system: DNA extracted from S. aureus; experiment: DNA fragmentation assay; conditions: data not shown
C. albicans = experiment: MIC, antifungal activity assay; type: cell-based, Candida albicans (DSM 10697); conditions: Candida albicans; Table 1 first screening; 35 °C, 24 h; read-out: Minimal Inhibitory Concentration (MIC) C. albicans
[3] = test system: P. aeruginosa (Quinolone-resistant); experiment: MIC, antimicrobial activity assay; type: cell-based; conditions: Pseudomonas aeruginosa, read-out: MIC P. aeruginosa (Quinolone-resistant)
C. perfringens = experiment: microbe, parasite or virus in culture; type: cell-based, Clostridium perfringens (ATCC 13124); conditions: Clostridium perfringens, read-out: MIC C. perfringens
[4] = test system: HepG2 (human liver cells); experiment: Cytotoxic assay on human cells (resazurin); type: cell-based; conditions: HepG2, 48 h, read-out: Inhibitory Concentration 50 (IC50) on cell viability, HEPG2
Procedure, shortened: (§1)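 Cells grown to confluence (48–72 h) were exposed for 48 h at 37 °C to 1:2 serial dilutions from 0 to 50 µM, with 0.5% DMSO as negative control. Resazurin 1:10 in PBS++ was added for 4 h, and fluorescence was read at 530/590 nm and normalized to DMSO wells. IC50 is the concentration giving 50% viability reduction.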

[5] = test system: BEAS (human airway epithelial cells); experiment: Cytotoxic assay on human cells (resazurin); type: cell-based; conditions: Epithelial cell, 48 h, means +/−SD, read-out: Inhibitory Concentration 50 (IC50) on cell viability, BEAS
Procedure, shortened: as §1

[6] = test system: Caco2 (human intestinal epithelial cells); experiment: Cytotoxic assay on human cells (resazurin); type: cell-based; conditions: for IC50: Homo sapiens, Caco-2, 48 h, read-out: Inhibitory Concentration 50 (IC50) on cell viability, Caco2; for therapeutic index Caco2: IC50 on Caco2 divided by MIC on S. aureus
A. gandavensis = experiment: MIC, antimicrobial activity assay; type: cell-based, Arthrobacter gandavensis (DSM 2447); conditions: Arthrobacter gandavensis; Table 4, Gram-positive
H. pylori = experiment: MIC, antimicrobial activity assay; type: cell-based, Helicobacter pylori (ATCC 43504); conditions: Helicobacter pylori; Table 4, Gram-negative; microaerobic
V. diabolicus = experiment: MIC, antimicrobial activity assay; type: cell-based; conditions: Vibrio diabolicus; Table 4, Gram-negative
[7] = test system: bacterial DNA extracted from V. alginolyticus; experiment: DNA fragmentation assay; conditions: 6 h at 37 °C, 4-times their MIC
A. baumannii = experiment: MIC, antimicrobial activity assay; type: cell-based, Acinetobacter baumannii (CIP 110431); conditions: Acinetobacter baumannii; Table 4, Gram-negative
[8] = test system: bacterial DNA extracted from B. subtilis; experiment: DNA fragmentation assay; conditions: 6 h at 37 °C, 4-times their MIC
V. alginolyticus = experiment: MIC, antimicrobial activity assay; type: cell-based, Vibrio alginolyticus (DSM 2171); conditions: Vibrio alginolyticus; Table 4, Gram-negative
C. farmer = experiment: MIC, antimicrobial activity assay; type: cell-based, Citrobacter farmeri (ATCC 51633); conditions: Citrobacter farmeri; Table 4, Gram-negative
S. aureus = experiment: Bacterial membrane permeabilization assay (propidium iodide); type: cell-based, Staphylococcus aureus; conditions: for membrane permeabilization at 4-times MIC, S. aureus: 4-times their MIC; for maximal membrane permeabilization, S. aureus: 120 min exposure to 100 µM, CTAB 300 µM = 100%
Method: Membrane permeabilization by berberine derivatives was evaluated using the cell-impermeable DNA/RNA probe propidium iodide as previously explained. Logarithmic growing bacterial suspensions were prepared from overnight bacterial suspension by 1 in 10 dilution. After 3 h incubation at 37 °C, 200 rpm, bacterial suspensions were centrifuged for 5 min at 3000 rpm. Cell pellets were then resuspended in sterile PBS at about 10^9 cells/mL. Propidium iodide (Sigma Aldrich) was then added to the suspension at a final concentration of 60 µM. 100 µL of this suspension were then transferred into 96-well black plates (Dominique Dutscher) and exposed to increasing concentrations of berberine’s derivative (from 0 to 100 µM, 1:2 dilution). […] All steps of the assay were performed in aerobic condition except for H. pylori which was done in microaerobic condition generated with GasPak unit (Sigma Aldrich). Bacteria were incubated at 37 °C and the kinetics of fluorescence variations (excitation at 530 nm and emission at 590 nm) were then recorded over time using a Synergy Mx microplate reader (Biotek). Cetyl trimethylammonium bromide (CTAB) at 300 µM was used as positive control giving 100% permeabilization. Results were expressed in % of permeabilization. All experiments were done in triplicate.

Structure (SMILES): COc1cc(C(=O)Cc2c3[n+](cc4c(OC)c(OC)ccc24)CCc2cc4c(cc2-3)OCO4)cc(OC)c1OC(=O)c1ccccc1 [Compound 16, 4-[2-(Berberin-13-yl)acetyl]-2,6-dimethoxyphenyl Benzoate]
- MIC (S. enterica): > 100 µM
- MIC [1]: 12.5 µM
- MIC (K. pneumonia): > 100 µM
- DNA fragmentation, S. aureus DNA [2]: failed at causing the fragmentation of DNA
- MIC (C. albicans): > 100 µM
- MIC [3]: > 100 µM
- MIC (C. perfringens): 25 µM
- IC50 [4]: > 50 µM
- IC50 [5]: > 50 µM
- IC50 [6]: > 50 µM
- therapeutic index Caco2 [6]: 10.36
- MIC (A. gandavensis): 100 µM
- MIC (H. pylori): 6.25 µM
- MIC (V. diabolicus): > 100 µM
- DNA fragmentation, V. alginolyticus DNA [7]: did not caused DNA fragmentation
- MIC (A. baumannii): > 100 µM
- DNA fragmentation, B. subtilis DNA [8]: did not caused DNA fragmentation
- MIC (V. alginolyticus): 3.12 µM
- MIC (C. farmer): > 100 µM
- membrane permeabilization at 4-times MIC, S. aureus (S. aureus): low to no membrane permeabilization
- maximal membrane permeabilization, S. aureus (S. aureus): 80–100%

Structure (SMILES): COc1ccc(C(=O)/C=C/c2ccc(Cc3c4[n+](cc5c(OC)c(OC)ccc35)CCc3cc5c(cc3-4)OCO5)cc2)c(O)c1 [Compound 25, (2E)-3-{4-[(Berberin-13-yl)methyl]phenyl}-1-(2-hydroxy-4-methoxyphenyl)prop-2-en-1-one]
- MIC (S. enterica): > 100 µM
- MIC [1]: 6.25 µM
- MIC (K. pneumonia): > 100 µM
- DNA fragmentation, S. aureus DNA [2]: failed at causing the fragmentation of DNA
- MIC (C. albicans): 12.5 µM
- MIC [3]: > 100 µM
- MIC (C. perfringens): 25 µM
- IC50 [4]: > 50 µM
- IC50 [5]: 8.87 ± 1.5 µM
- IC50 [6]: 10.5 ± 0.7 µM
- therapeutic index Caco2 [6]: 3.37
- MIC (A. gandavensis): 1.5 µM
- MIC (H. pylori): 3.12 µM
- MIC (V. diabolicus): > 100 µM
- DNA fragmentation, V. alginolyticus DNA [7]: did not caused DNA fragmentation
- MIC (A. baumannii): > 100 µM
- DNA fragmentation, B. subtilis DNA [8]: did not caused DNA fragmentation
- MIC (V. alginolyticus): 3.12 µM
- MIC (C. farmer): > 100 µM
- membrane permeabilization at 4-times MIC, S. aureus (S. aureus): low to no membrane permeabilization
- maximal membrane permeabilization, S. aureus (S. aureus): 80–100%
